Read-outs that look alike come from different tables or passages of the source. Positions of bridges follow the written chain, without caps; N, C: chain ends. Non-standard residues stand in square brackets, D forms with d. Residues, ends and D or L forms follow the SMILES beside them. Cit = NC(=O)NCCC[C@H](N)C(=O)O
Assays:
Experiment in all cases: cell-based
[1] = target: hNav1.3 (Homo sapiens, UniProt Q9NY46); settings: IonWorks Quattro, hNav1.3, read-out: IWQ Use Nav1.3
[2] = target: hNav1.7 (Homo sapiens, UniProt Q15858); type: cell-based; settings: IonWorks Quattro, hNav1.7, read-out: IWQ Use Nav1.7
[3] = target: hNav1.5 (Homo sapiens, UniProt Q14524); settings: IonWorks Quattro, hNav1.5, read-out: IWQ Use Nav1.5
Chain of hNav1.5 (Q14524 whole entry, looked up): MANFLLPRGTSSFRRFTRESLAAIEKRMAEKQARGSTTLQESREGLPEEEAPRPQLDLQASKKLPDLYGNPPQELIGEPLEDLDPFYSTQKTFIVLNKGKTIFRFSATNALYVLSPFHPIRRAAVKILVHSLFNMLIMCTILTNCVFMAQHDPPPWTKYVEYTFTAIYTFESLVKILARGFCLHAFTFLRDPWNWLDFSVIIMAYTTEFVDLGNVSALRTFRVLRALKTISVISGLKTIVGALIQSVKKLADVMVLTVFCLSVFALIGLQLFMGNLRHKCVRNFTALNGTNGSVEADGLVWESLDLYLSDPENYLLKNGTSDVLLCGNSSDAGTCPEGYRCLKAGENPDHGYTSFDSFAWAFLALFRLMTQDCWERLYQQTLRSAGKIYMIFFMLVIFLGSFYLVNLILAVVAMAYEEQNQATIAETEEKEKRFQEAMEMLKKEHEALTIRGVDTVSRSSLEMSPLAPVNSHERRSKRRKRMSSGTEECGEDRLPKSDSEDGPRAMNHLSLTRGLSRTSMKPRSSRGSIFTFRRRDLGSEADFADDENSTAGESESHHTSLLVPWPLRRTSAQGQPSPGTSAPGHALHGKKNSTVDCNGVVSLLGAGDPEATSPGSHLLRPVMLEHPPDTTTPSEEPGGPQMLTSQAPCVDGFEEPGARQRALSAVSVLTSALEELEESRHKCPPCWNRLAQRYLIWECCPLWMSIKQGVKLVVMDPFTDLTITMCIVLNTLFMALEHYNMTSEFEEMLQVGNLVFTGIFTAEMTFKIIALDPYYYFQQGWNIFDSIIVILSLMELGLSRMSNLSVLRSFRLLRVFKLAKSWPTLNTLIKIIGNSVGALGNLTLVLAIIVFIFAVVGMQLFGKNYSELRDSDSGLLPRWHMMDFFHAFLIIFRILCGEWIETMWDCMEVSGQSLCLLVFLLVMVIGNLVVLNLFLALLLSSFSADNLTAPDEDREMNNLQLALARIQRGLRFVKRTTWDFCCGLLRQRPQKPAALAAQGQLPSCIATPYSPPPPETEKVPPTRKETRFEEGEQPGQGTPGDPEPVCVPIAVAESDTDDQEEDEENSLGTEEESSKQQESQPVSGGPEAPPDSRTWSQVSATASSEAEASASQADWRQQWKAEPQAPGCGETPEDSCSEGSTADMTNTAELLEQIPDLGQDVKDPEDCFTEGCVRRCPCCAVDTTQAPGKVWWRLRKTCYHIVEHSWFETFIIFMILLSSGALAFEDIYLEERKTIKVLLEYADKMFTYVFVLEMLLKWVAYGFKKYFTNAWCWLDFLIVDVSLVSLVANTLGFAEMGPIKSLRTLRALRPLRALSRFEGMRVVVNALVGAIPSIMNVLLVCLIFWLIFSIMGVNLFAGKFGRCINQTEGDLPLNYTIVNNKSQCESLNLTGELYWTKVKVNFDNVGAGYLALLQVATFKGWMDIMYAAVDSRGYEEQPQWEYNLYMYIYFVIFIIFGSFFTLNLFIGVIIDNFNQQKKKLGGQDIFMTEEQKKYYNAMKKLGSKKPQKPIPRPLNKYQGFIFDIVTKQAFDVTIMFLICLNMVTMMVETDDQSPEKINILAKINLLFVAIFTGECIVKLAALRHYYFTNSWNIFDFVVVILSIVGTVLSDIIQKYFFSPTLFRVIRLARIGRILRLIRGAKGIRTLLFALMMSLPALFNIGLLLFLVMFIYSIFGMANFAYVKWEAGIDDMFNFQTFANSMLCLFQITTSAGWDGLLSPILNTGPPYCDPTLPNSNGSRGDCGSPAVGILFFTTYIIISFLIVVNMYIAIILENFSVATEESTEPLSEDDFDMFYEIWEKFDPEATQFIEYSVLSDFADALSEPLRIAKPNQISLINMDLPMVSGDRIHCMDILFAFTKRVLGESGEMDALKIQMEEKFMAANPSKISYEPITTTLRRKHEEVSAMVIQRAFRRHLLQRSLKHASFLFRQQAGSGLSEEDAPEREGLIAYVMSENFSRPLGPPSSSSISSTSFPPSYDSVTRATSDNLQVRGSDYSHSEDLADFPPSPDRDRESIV

Chain of hNav1.3 (Q9NY46 whole entry, looked up): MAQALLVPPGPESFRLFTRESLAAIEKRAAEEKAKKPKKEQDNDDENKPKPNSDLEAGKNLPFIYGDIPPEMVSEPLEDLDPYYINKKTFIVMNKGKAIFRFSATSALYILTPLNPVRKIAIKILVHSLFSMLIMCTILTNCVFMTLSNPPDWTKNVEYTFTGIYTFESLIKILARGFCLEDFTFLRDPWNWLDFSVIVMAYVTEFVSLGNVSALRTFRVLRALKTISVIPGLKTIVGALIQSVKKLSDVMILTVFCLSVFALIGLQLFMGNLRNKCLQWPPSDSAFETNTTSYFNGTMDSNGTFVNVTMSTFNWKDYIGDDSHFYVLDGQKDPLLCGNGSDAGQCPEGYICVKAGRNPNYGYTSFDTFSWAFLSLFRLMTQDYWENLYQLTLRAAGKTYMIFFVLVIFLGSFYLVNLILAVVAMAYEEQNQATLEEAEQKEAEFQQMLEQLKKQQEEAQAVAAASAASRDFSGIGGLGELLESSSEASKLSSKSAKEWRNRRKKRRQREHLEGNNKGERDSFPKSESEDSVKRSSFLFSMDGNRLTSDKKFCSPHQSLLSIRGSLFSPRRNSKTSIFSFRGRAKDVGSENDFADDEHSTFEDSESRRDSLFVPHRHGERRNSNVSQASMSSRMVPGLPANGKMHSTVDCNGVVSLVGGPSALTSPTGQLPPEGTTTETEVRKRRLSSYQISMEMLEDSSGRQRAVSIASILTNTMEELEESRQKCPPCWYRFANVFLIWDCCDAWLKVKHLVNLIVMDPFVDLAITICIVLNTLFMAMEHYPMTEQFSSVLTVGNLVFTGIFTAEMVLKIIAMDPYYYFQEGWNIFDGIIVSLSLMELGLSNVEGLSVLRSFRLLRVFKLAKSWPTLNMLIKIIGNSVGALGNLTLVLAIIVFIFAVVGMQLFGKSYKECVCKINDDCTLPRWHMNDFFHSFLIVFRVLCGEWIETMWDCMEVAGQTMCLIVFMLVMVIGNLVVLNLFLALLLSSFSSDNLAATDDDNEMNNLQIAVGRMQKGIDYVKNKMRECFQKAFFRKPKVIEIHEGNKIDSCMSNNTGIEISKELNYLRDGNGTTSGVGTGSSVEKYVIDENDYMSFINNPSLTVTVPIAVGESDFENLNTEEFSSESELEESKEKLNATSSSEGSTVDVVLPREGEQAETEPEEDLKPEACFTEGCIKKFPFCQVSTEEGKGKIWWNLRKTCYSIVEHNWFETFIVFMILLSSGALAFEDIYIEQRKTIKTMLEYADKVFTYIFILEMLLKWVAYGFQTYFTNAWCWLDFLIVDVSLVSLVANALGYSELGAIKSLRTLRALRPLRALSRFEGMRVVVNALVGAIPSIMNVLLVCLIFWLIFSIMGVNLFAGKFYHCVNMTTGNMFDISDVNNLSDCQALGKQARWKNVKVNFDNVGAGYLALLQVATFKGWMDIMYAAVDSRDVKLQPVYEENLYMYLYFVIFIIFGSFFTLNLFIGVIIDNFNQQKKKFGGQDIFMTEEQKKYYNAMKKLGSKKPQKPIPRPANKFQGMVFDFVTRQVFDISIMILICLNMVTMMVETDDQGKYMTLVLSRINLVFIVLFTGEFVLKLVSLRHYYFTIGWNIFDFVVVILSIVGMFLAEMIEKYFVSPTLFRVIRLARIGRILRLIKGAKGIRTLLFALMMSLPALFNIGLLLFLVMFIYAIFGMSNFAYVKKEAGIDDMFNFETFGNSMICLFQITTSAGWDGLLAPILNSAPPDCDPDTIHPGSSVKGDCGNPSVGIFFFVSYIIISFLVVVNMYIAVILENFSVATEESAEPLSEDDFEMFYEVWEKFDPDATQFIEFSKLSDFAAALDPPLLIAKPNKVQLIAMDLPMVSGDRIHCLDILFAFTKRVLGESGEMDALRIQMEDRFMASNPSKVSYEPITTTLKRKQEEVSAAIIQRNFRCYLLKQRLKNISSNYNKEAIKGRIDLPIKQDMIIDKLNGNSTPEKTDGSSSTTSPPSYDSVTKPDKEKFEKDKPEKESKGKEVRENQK

SMILES | IC50 ([1]; use-dependent protocol) [µM] | IC50 ([2]; use-dependent protocol) [µM] | IC50 ([3]; use-dependent protocol) [µM] | IC50 ([1]; use-dependent block) [µM] | IC50 ([2]; use-dependent block) [µM] | IC50 ([3]; use-dependent block) [µM]
CSCC[C@@H]1NC(=O)[C@H](C(C)C)NC(=O)CNC(=O)[C@H](CC(C)C)NC(=O)[C@@H](NC(=O)[C@@H](N)CC(=O)O)CSSC[C@@H]2NC(=O)[C@@H]3CSSC[C@@H](C(=O)N[C@@H](CCCCN)C(=O)N[C@@H](Cc4ccc(O)cc4)C(=O)N[C@H](C(=O)N[C@@H](Cc4ccccc4)C(N)=O)C(C)C)NC(=O)[C@H](Cc4c[nH]c5ccccc45)NC(=O)[C@H](CCCCN)NC(=O)[C@H](Cc4c[nH]cn4)NC(=O)[C@H]([C@@H](C)O)NC(=O)[C@H](CCCNC(=N)N)NC(=O)[C@H](CO)NC(=O)[C@H](CSSC[C@H](NC(=O)[C@H](CCCCN)NC(=O)[C@H](CCCNC(=N)N)NC1=O)C(=O)N[C@@H](CC(=O)O)C(=O)N1CCC[C@H]1C(=O)N[C@@H](CC(=O)O)C(=O)N[C@@H](CC(N)=O)C(=O)N[C@@H](CC(=O)O)C(=O)N[C@@H](CCCCN)C(=O)N3)NC(=O)[C@H](C(C)C)NC(=O)[C@H](CC(C)C)NC(=O)[C@H](CC(N)=O)NC(=O)[C@@H]1CCCN1C(=O)[C@H](CCCNC(=N)N)NC2=O [compound 710] (H-DCLGVMRKCDPDNDKCCRPNLVCSRTHKWCKYVF-NH2; disulfide 2-17, 9-23, 16-30) | 1.3 | 0.69 | 35 |  |  | 
CC[C@H](C)[C@@H]1NC(=O)[C@@H]2CSSC[C@@H]3NC(=O)[C@H](C(C)C)NC(=O)[C@H](CC(C)C)NC(=O)[C@H](CC(N)=O)NC(=O)[C@@H]4CCCN4C(=O)[C@H](CCCNC(=N)N)NC(=O)[C@H](CSSC[C@H](NC(=O)[C@@H](N)CC(=O)O)C(=O)N[C@@H](CC(C)C)C(=O)NCC(=O)N[C@@H](C(C)C)C(=O)N[C@@H](CCSC)C(=O)N[C@@H](CCCNC(=N)N)C(=O)N[C@@H](CCCCN)C(=O)N2)NC(=O)[C@H](CSSC[C@@H](C(=O)N[C@@H](CCCCN)C(=O)N[C@@H](Cc2ccc(O)cc2)C(=O)N[C@H](C(=O)N[C@@H](Cc2ccccc2)C(N)=O)C(C)C)NC(=O)[C@H](Cc2c[nH]c4ccccc24)NC(=O)[C@H](CCCCN)NC(=O)[C@H](Cc2c[nH]cn2)NC(=O)[C@H]([C@@H](C)O)NC(=O)[C@H](CCCNC(=N)N)NC(=O)[C@H](CO)NC3=O)NC(=O)[C@H](CCCCN)NC(=O)[C@H](CC(=O)O)NC(=O)[C@H](CC(N)=O)NC(=O)[C@H](CCC(=O)O)NC(=O)[C@@H]2CCCN2C1=O [compound 711] (H-DCLGVMRKCIPENDKCCRPNLVCSRTHKWCKYVF-NH2; disulfide 2-17, 9-23, 16-30) | 0.75 | 0.48 | 26 |  |  | 
CSCC[C@@H]1NC(=O)[C@H](C(C)C)NC(=O)CNC(=O)[C@H](CC(C)C)NC(=O)[C@@H](NC(=O)[C@@H](N)CC(=O)O)CSSC[C@@H]2NC(=O)[C@@H]3CSSC[C@@H](C(=O)N[C@@H](CCCCN)C(=O)N[C@@H](Cc4ccc(O)cc4)C(=O)N[C@H](C(=O)N[C@@H](Cc4ccccc4)C(N)=O)C(C)C)NC(=O)[C@H](Cc4c[nH]c5ccccc45)NC(=O)[C@H](CCCCN)NC(=O)[C@H](Cc4c[nH]cn4)NC(=O)[C@H]([C@@H](C)O)NC(=O)[C@H](CCCNC(=N)N)NC(=O)[C@H](CO)NC(=O)[C@H](CSSC[C@H](NC(=O)[C@H](CCCCN)NC(=O)[C@H](CCCNC(=N)N)NC1=O)C(=O)N[C@@H](CC(=O)O)C(=O)N1CCC[C@H]1C(=O)N[C@@H](CCC(=O)O)C(=O)N[C@@H](CC(N)=O)C(=O)N[C@@H](CC(=O)O)C(=O)N[C@@H](CCCCN)C(=O)N3)NC(=O)[C@H](C(C)C)NC(=O)[C@H](CC(C)C)NC(=O)[C@H](CC(N)=O)NC(=O)[C@@H]1CCCN1C(=O)[C@H](CCCNC(=N)N)NC2=O [compound 712] (H-DCLGVMRKCDPENDKCCRPNLVCSRTHKWCKYVF-NH2; disulfide 2-17, 9-23, 16-30) | 1.7 | 0.46 | 34 |  |  | 
CC[C@H](C)[C@@H]1NC(=O)[C@@H]2CSSC[C@@H]3NC(=O)[C@H](C(C)C)NC(=O)[C@H](CC(C)C)NC(=O)[C@H](CC(N)=O)NC(=O)[C@@H]4CCCN4C(=O)[C@H](CCCNC(=N)N)NC(=O)[C@H](CSSC[C@H](NC(=O)[C@@H](N)CC(=O)O)C(=O)N[C@@H](CC(C)C)C(=O)NCC(=O)N[C@@H](C(C)C)C(=O)N[C@@H](CCSC)C(=O)N[C@@H](CCCNC(=N)N)C(=O)N[C@@H](CCCCN)C(=O)N2)NC(=O)[C@H](CSSC[C@@H](C(=O)N[C@@H](CCCCN)C(=O)N[C@@H](Cc2ccc(O)cc2)C(=O)N[C@H](C(=O)N[C@@H](Cc2ccccc2)C(N)=O)C(C)C)NC(=O)[C@H](Cc2c[nH]c4ccccc24)NC(=O)[C@H](CCCCN)NC(=O)[C@H](Cc2c[nH]cn2)NC(=O)[C@H]([C@@H](C)O)NC(=O)[C@H](CCCNC(N)=O)NC(=O)[C@H](CO)NC3=O)NC(=O)[C@H](CCCCN)NC(=O)[C@H](CC(=O)O)NC(=O)[C@H](CC(N)=O)NC(=O)[C@H](CC(=O)O)NC(=O)[C@@H]2CCCN2C1=O [compound 713] (H-DCLGVMRKCIPDNDKCCRPNLVCS[Cit]THKWCKYVF-NH2; disulfide 2-17, 9-23, 16-30) | 4.2 | 0.83 | 36 |  |  | 
CSCC[C@@H]1NC(=O)[C@H]([C@@H](C)O)NC(=O)CNC(=O)[C@H](CC(C)C)NC(=O)[C@@H](NC(=O)[C@@H](N)CC(=O)O)CSSC[C@@H]2NC(=O)[C@@H]3CSSC[C@@H](C(=O)N[C@@H](CCCCN)C(=O)N[C@@H](Cc4ccc(O)cc4)C(=O)N[C@H](C(=O)N[C@@H](Cc4ccccc4)C(N)=O)C(C)C)NC(=O)[C@H](Cc4c[nH]c5ccccc45)NC(=O)[C@H](CCCCN)NC(=O)[C@H](Cc4c[nH]cn4)NC(=O)[C@H]([C@@H](C)O)NC(=O)[C@H](CCCNC(=N)N)NC(=O)[C@H](CO)NC(=O)[C@H](CSSC[C@H](NC(=O)[C@H](CCCCN)NC(=O)[C@H](CCCNC(=N)N)NC1=O)C(=O)N[C@@H](CC(=O)O)C(=O)N1CCC[C@H]1C(=O)N[C@@H](CC(=O)O)C(=O)N[C@@H](CC(N)=O)C(=O)N[C@@H](CC(=O)O)C(=O)N[C@@H](CCCCN)C(=O)N3)NC(=O)[C@H](C(C)C)NC(=O)[C@H](CC(C)C)NC(=O)[C@H](CC(N)=O)NC(=O)[C@@H]1CCCN1C(=O)[C@H](CCCNC(=N)N)NC2=O [compound 714] (H-DCLGTMRKCDPDNDKCCRPNLVCSRTHKWCKYVF-NH2; disulfide 2-17, 9-23, 16-30) | > 5 | 1.6 | 48 |  |  | 
CC[C@H](C)[C@@H]1NC(=O)[C@@H]2CSSC[C@@H]3NC(=O)[C@H](C(C)C)NC(=O)[C@H](CC(C)C)NC(=O)[C@H](CC(N)=O)NC(=O)[C@@H]4CCCN4C(=O)[C@H](CCCNC(=N)N)NC(=O)[C@H](CSSC[C@H](NC(=O)[C@@H](N)CC(=O)O)C(=O)N[C@@H](CC(C)C)C(=O)NCC(=O)N[C@@H](C)C(=O)N[C@@H](CCSC)C(=O)N[C@@H](CCCNC(=N)N)C(=O)N[C@@H](CCCCN)C(=O)N2)NC(=O)[C@H](CSSC[C@@H](C(=O)N[C@@H](CCCCN)C(=O)N[C@@H](Cc2ccc(O)cc2)C(=O)N[C@H](C(=O)N[C@@H](Cc2ccccc2)C(N)=O)C(C)C)NC(=O)[C@H](Cc2c[nH]c4ccccc24)NC(=O)CNC(=O)[C@H](Cc2c[nH]cn2)NC(=O)[C@H]([C@@H](C)O)NC(=O)[C@H](CCCNC(=N)N)NC(=O)[C@H](CO)NC3=O)NC(=O)[C@H](CCCCN)NC(=O)[C@H](CC(=O)O)NC(=O)[C@H](CC(N)=O)NC(=O)[C@H](CC(=O)O)NC(=O)[C@@H]2CCCN2C1=O [compound 715] (H-DCLGAMRKCIPDNDKCCRPNLVCSRTHGWCKYVF-NH2; disulfide 2-17, 9-23, 16-30) |  |  |  | > 5 | 1 | > 50

From patent US9340590B2 (priority 2011, dated 2016)
